Laboratory results reported in ChEMBL document CHEMBL3779842, “Isopimarane diterpenoids from Kaempferia pulchra rhizomes collected in Myanmar and their Vpr inhibitory activity” (Bioorg Med Chem Lett, 2016).
Calls of active or inactive are those of the source. The calls are words filed in the database; no cut-off is given here.

Experiments:
Format in all cases: cell-based
Settings in all cases: Human immunodeficiency virus 1
TREx-HeLa-Vpr [1] = assay: Inhibition of -c-myc-His6 tagged HIV1 NL4-3 Vpr expressed in human TREx-HeLa-Vpr cells assessed as cell viability at 6.25 uM after 48 hrs in presence of tetracycline by WST8 assay
TREx-HeLa-Vpr [2] = assay: Inhibition of -c-myc-His6 tagged HIV1 NL4-3 Vpr expressed in human TREx-HeLa-Vpr cells assessed as cell viability at 3.12 uM after 48 hrs in presence of tetracycline by WST8 assay
TREx-HeLa-Vpr [3] = assay: Inhibition of -c-myc-His6 tagged HIV1 NL4-3 Vpr expressed in human TREx-HeLa-Vpr cells assessed as cell viability at 1.56 uM after 48 hrs in presence of tetracycline by WST8 assay
TREx-HeLa-Vpr [4] = assay: Inhibition of -c-myc-His6 tagged HIV1 NL4-3 Vpr expressed in human TREx-HeLa-Vpr cells assessed as cell viability at 5 uM after 48 hrs in presence of tetracycline by WST8 assay

| SMILES | inhibition (TREx-HeLa-Vpr [1]) | inhibition (TREx-HeLa-Vpr [2]) | inhibition (TREx-HeLa-Vpr [3]) | Cell viability (TREx-HeLa-Vpr [1]) [%] | Activity (TREx-HeLa-Vpr [2]) [%] | Activity (TREx-HeLa-Vpr [3]) [%] | Activity (TREx-HeLa-Vpr [4]) [%] |
| --- | --- | --- | --- | --- | --- | --- | --- |
| C=C[C@@]1(C)CCC2=C(C(=O)C[C@H]3C(C)(C)CCC[C@]23C)[C@H]1O | inactive | inactive | inactive |  |  |  |  |
| C=C[C@]1(C)C=C2CC[C@H]3C(C)(C)C[C@H](O)[C@H](O)[C@]3(C)[C@@]2(O)CC1 | inactive | inactive | inactive |  |  |  |  |
| C=C[C@]1(C)C=C2[C@@H](O)[C@@H](O)[C@H]3C(C)(C)CCC[C@]3(C)[C@@]2(O)CC1 |  |  |  | 96 | 111 | 130 |  |
| CCOC(=O)/C=C/c1ccc(OC)cc1 | inactive | inactive | inactive |  |  |  |  |
| C=C[C@@]1(C)C=C2CC[C@@H]3C(C)(C)C[C@@H](O)C[C@@]3(C)[C@@H]2CC1 | inactive | inactive | inactive |  |  |  |  |
| C=C[C@]1(C)C=C2CC[C@H]3C(C)(C)[C@H](O)C[C@H](O)[C@]3(C)[C@H]2CC1 | inactive | inactive | inactive |  |  |  |  |
| C=C[C@]1(C)C=C2C[C@@H](O)[C@H]3C(C)(C)[C@H](O)C[C@H](O)[C@]3(C)[C@H]2CC1 | inactive | inactive | inactive |  |  |  |  |
| C=C[C@]1(C)C=C2[C@H](OC(C)=O)C[C@H]3C(C)(C)CCC[C@]3(C)[C@@]2(O)CC1 | inactive | inactive | inactive |  |  |  |  |
| C=C[C@@]1(C)CCC2=C(CC[C@H]3C(C)(C)CCC[C@]23C)[C@H]1O |  |  |  | 104 | 106 | 116 |  |
| COc1c(C=O)c(O)cc2c1C(=O)c1ccccc1C2=O |  |  |  |  |  |  | 137 |
| C=C[C@]1(C)C=C2C(=O)C[C@H]3C(C)(C)CCC[C@]3(C)[C@@]2(O)CC1 | inactive | inactive | inactive |  |  |  |  |
| C=C[C@]1(C)C=C2CC[C@H]3C(C)(C)C[C@H](O)[C@H](O)[C@]3(C)[C@H]2CC1 | inactive | inactive | inactive |  |  |  |  |
| C=C[C@]1(C)C=C2CC[C@H]3C(C)(C)CC[C@H](O)[C@]3(C)[C@H]2[C@H](O)C1 | inactive | inactive | inactive |  |  |  |  |
| C=C[C@]1(C)C=C2[C@H](OC(C)=O)[C@@H](O)[C@H]3C(C)(C)CCC[C@]3(C)[C@H]2CC1 |  |  |  | 96 | 114 | 127 |  |
| C=C[C@]1(C)C=C2C[C@@H](O)[C@H]3C(C)(C)CC[C@H](O)[C@]3(C)[C@H]2CC1 | inactive | inactive | inactive |  |  |  |  |
| C=C[C@]1(C)C=C2C[C@@H](OC(C)=O)[C@H]3C(C)(C)CCC[C@]3(C)[C@@]2(O)CC1 | inactive | inactive | inactive |  |  |  |  |

| SMILES | inhibition (TREx-HeLa-Vpr [1]) | inhibition (TREx-HeLa-Vpr [2]) | inhibition (TREx-HeLa-Vpr [3]) | Cell viability (TREx-HeLa-Vpr [1]) [%] | Activity (TREx-HeLa-Vpr [2]) [%] | Activity (TREx-HeLa-Vpr [3]) [%] | Activity (TREx-HeLa-Vpr [4]) [%] |
| --- | --- | --- | --- | --- | --- | --- | --- |
| C=C[C@]1(C)C=C2[C@@H](OC(C)=O)[C@@H](O)[C@H]3C(C)(C)CCC[C@]3(C)[C@@]2(O)CC1 | inactive | inactive | inactive |  |  |  |  |
| C=C[C@@]1(C)CCC2=C(C[C@@H](O)[C@H]3C(C)(C)CCC[C@]23C)[C@@H]1OC |  |  |  | 114 | 119 | 126 |  |
| C=C[C@@]1(C)CCC2=C(C[C@@H](O)[C@H]3C(C)(C)CCC[C@]23C)[C@@H]1O |  |  |  | 157 | 170 | 180 |  |
| C=C[C@]1(C)C=C2C(=O)C[C@H]3C(C)(C)CC[C@H](O)[C@]3(C)[C@H]2CC1 | inactive | inactive | inactive |  |  |  |  |
| C=C[C@]1(C)C=C2[C@H](O)C[C@H]3C(C)(C)CCC[C@]3(C)[C@H]2CC1 | inactive | inactive | inactive |  |  |  |  |
| C=C[C@]1(C)C=C2C[C@@H](O)[C@H]3C(C)(C)CC[C@H](OC(C)=O)[C@]3(C)[C@H]2CC1 |  |  |  | 105 | 116 | 130 |  |
| C=C[C@]1(C)C=C2CC[C@H]3C(C)(C)CC[C@H](O)[C@]3(C)[C@H]2CC1 | inactive | inactive | inactive |  |  |  |  |
| C=C[C@@]1(C)CCC2=C(C[C@@H](O)[C@H]3C(C)(C)CCC[C@]23C)[C@H]1OC | inactive | inactive | inactive |  |  |  |  |
| C=C[C@@]1(C)CCC2=C(C[C@@H](O)[C@H]3C(C)(C)CCC[C@]23C)C1=O |  |  |  | 98 | 106 | 114 |  |
| C=C[C@@]1(C)CCC2=C(C[C@@H](O)[C@H]3C(C)(C)CCC[C@]23C)[C@H]1O | inactive | inactive | inactive |  |  |  |  |
| C=C[C@@]1(C)CCC2=C(C[C@@H](O)[C@H]3C(C)(C)CC[C@H](O)[C@]23C)[C@H]1O | inactive | inactive | inactive |  |  |  |  |
| C=C[C@@]1(C)CCC2=C(C[C@@H](O)[C@H]3C(C)(C)CC[C@H](O)[C@]23C)[C@@H]1OC | inactive | inactive | inactive |  |  |  |  |
| C=C[C@]1(C)C=C2CC[C@H]3C(C)(C)C[C@H](O)[C@H](O)[C@]3(C)[C@H]2[C@H](O)C1 | inactive | inactive | inactive |  |  |  |  |
| C=C[C@]1(C)C=C2C[C@@H](O)[C@H]3C(C)(C)CCC[C@]3(C)[C@@]2(OC)CC1 | inactive | inactive | inactive |  |  |  |  |
| C=C[C@]1(C)C=C2C[C@@H](O)[C@H]3C(C)(C)CCC[C@]3(C)[C@H]2CC1 | inactive | inactive | inactive |  |  |  |  |
| C=C[C@]1(C)C=C2[C@@H](O)C[C@H]3C(C)(C)CCC[C@]3(C)[C@@]2(O)CC1 | inactive | inactive | inactive |  |  |  |  |
